# Tested on: not listed separately
# Assay: log P determination by LC-MS in the acidic range
# Type: physicochemical
# Settings: LC-MS in the acidic range
# Source text: The LC-MS determination in the acidic range is effected at pH 2.7 using 0.1% aqueous formic acid and acetonitrile (contains 0.1% formic acid) as eluents, linear gradient from 10% acetonitrile to 95% acetonitrile. Alternatively, the determination is effected in the acidic range at pH 2.3 using 0.1% aqueous phosphoric acid and acetonitrile as eluents; linear gradient from 10% acetonitrile to 95% acetonitrile.
row,Compound,log P (acid)
1,O=C(Nc1ccn(Cc2ncc(C(F)(F)F)cc2Cl)n1)c1cccnc1 [Compound I-1-116],1.86
2,O=C(Nc1cc(C2CC2)n(Cc2ccc(Cl)nc2)n1)c1cccnc1 [Compound I-1-29],1.77
3,Cc1cc(NC(=O)c2cccnc2)nn1CC1COc2ccccc2O1 (centres unmarked) [Compound I-1-157],1.99
4,CCCCNC(=O)n1nc(NC(=O)c2cccnc2)cc1C [Compound I-1-315],1.92
5,CCOC(=O)c1ccc(Cn2ccc(NC(=O)c3cccnc3)n2)cc1 [Compound I-1-92],1.85
6,O=C(Nc1ccn(Cc2cccc(OC(F)(F)F)c2)n1)c1cccnc1 [Compound I-1-73],2.20
7,CC(C)(C)c1ccc(Cn2ccc(NC(=O)c3ccc(Cl)nc3)n2)cc1 [Compound I-1-86],3.54
8,COc1cc(OC)nc(Cn2nc(NC(=O)c3cccnc3)cc2C)n1 [Compound I-1-53],1.59
9,O=C(Nc1ccn(Cc2cccc(F)c2)n1)c1cccnc1 [Compound I-1-70],1.59
10,Cc1cc(NC(=Nc2ccc(Cl)cc2Cl)c2cccnc2)nn1C [Compound I-1-232],1.77
11,Cc1cc(NC(=O)c2cncnc2)nn1Cc1ccccc1 [Compound I-1-66],1.76
12,Cc1cc(NC(=O)c2cccnc2)nn1C(=O)NCc1ccccc1 [Compound I-1-322],1.97
13,Cc1cc(NC(=O)c2cccnc2)nn1Cc1ccc(F)cc1 [Compound I-1-62],1.88
14,Cc1cc(NC(=O)c2cccnc2)nn1Cc1nnc(-c2ccccc2)o1 [Compound I-1-299],1.57
15,Cc1cc(C)nc(-n2nc(NC(=O)c3cncc(F)c3)cc2C)n1 [Compound I-1-132],2.04
16,Cc1cc(NC(=O)c2cccnc2)nn1C(C)(C)C [Compound I-1-347],1.61
17,Cc1cc(NC(=O)c2ccc(Cl)nc2)nn1Cc1ccccc1 [Compound I-1-98],2.48
18,Cc1cc(NC(=O)c2cncc(Br)c2)nn1Cc1ccccc1F [Compound I-1-101],2.69
19,Cn1nc(NC(=O)c2cccnc2)c(Cl)c1OC(F)F [Compound I-1-275],1.19
20,Cn1nc(NC(=O)c2cncc(F)c2)cc1C(F)F [Compound I-1-222],1.51
21,Cc1ccnc(Cn2nc(NC(=O)c3ccnnc3)cc2C)n1 [Compound I-1-253],0.88
22,COc1ccc(-n2nc(NC(=O)c3cccnc3)cc2C)cc1 [Compound I-1-200],1.34
23,N#Cc1ccccc1-n1ccc(NC(=O)c2cccnc2)n1 [Compound I-1-117],1.42
24,Cc1ccc(-n2nc(NC(=O)c3cccnc3)cc2C)cc1 [Compound I-1-193],2.02

# Same assay, conditions: Table 2, compounds of the formula (I-2); acidic range pH 2.7 or pH 2.3
row,Compound,log P (acid)
1,CSc1nc(NC(=O)c2cccnc2)nn1C [Compound I-2-26],0.32
2,CCn1nc(NC(=O)c2cccnc2)nc1SC [Compound I-2-12],0.71
3,Cc1nc(NC(=O)c2cccnc2)nn1C(C)C [Compound I-2-20],0.44
4,COc1ccnc(-n2cnc(NC(=O)c3cccnc3)n2)n1 [Compound I-2-11],0.70

# Same assay, conditions: Table 3; HPLC on reversed-phase column (C 18), 55° C., acidic range (pH 2.7 or pH 2.3)
row,Compound,log P (acid)
1,Cc1nn(-c2cc(Cl)ccc2Cl)nc1NC(=O)c1cccnc1 [Compound I-3-22],2.26
2,O=C(Nc1nn(-c2ccccc2)nc1Br)c1cccnc1 [Compound I-3-3],2.09
3,Cc1nn(-c2ncc(Cl)cc2Cl)nc1NC(=O)c1cccnc1 [Compound I-3-17],1.74
4,O=C(Nc1cnn(-c2ccc(Cl)cc2)n1)c1cccnc1 [Compound I-3-4],2.43
5,O=C(Nc1nn(-c2ccc(Cl)cc2Cl)nc1C(F)(F)F)c1cccnc1 [Compound I-3-8],2.97

# Same assay, conditions: amines of the formula (II-1); acidic range pH 2.7 (0.1% formic acid/acetonitrile) or pH 2.3 (0.1% phosphoric acid/acetonitrile)
row,Compound,log P (acid)
1,Cc1cc(N)nn1CN1CCCNC1=O [II-1-57],<−0.23
2,Nc1cc(C2CC2)n(Cc2ccc(Cl)nc2)n1 [II-1-1],1.21
3,Cc1cc(N)nn1Cn1c(C)nn(C)c1=O [II-1-54],<−0.23
4,Cc1cc(N)nn1Cn1cncn1 [II-1-43],−0.23
5,Nc1ccn(Cc2ccc(Cl)nc2)n1 [II-1-3],0.56
6,Cc1cc(N)nn1Cc1ccncc1 [II-1-18],0.45
7,C#CCn1nc(N)cc1C1CC1 [II-1-4],0.63
8,Cc1ccnn1Cn1nc(N)cc1C [II-1-39],0.52
9,CCOCn1nc(N)cc1C [II-1-33],0.15
10,C#CCn1nc(N)cc1CC [II-1-17],0.46
11,Cc1cc(N)nn1C(C)C#N (centres unmarked) [II-1-64],0.02
12,Cc1ccn(Cn2nc(N)cc2C)n1 [II-1-38],0.55
13,Cc1cc(N)nn1Cn1ccc(C(F)(F)F)n1 [II-1-42],1.51

# Same assay, conditions: pH 2.7, LC-MS in the acidic range; read-out: log P (acid)
row,Compound,chromatographic logP
1,"Cc1cc(NC(=O)c2ccnnc2)nn1Cc1ccccc1 [Compound I-1-79, N-(1-Benzyl-5-methyl-1H-pyrazol-3-yl)pyridazine-4-carboxamide]",1.67
2,"Cn1nc(NC(=O)c2cncc(F)c2)cc1OC(F)F [Compound I-1-112, N-[5-(Difluoromethoxy)-1-methyl-1H-pyrazol-3-yl]-5-fluoronicotinamide]",1.56

# Same assay, conditions: pH 2.7, amines of the formula (II-1); acidic range pH 2.7 (0.1% formic acid/acetonitrile) or pH 2.3 (0.1% phosphoric acid/acetonitrile); read-out: log P (acid)
row,Compound,chromatographic logP
1,"Cc1cc(N)nn1Cc1ncccn1 [II-1-23, 5-Methyl-1-(pyrimidin-2-ylmethyl)-1H-pyrazole-3-amine]",< -0.23

# Same assay, conditions: pH 2.7, values given in the synthesis examples and NMR lists; read-out: HPLC-MS: log P
row,Compound,chromatographic logP
1,"Cc1cc(NC(=O)c2ccnnc2)nn1Cc1ccccc1 [Compound I-1-79, N-(1-Benzyl-5-methyl-1H-pyrazol-3-yl)pyridazine-4-carboxamide]",1.67
2,"Cc1cc(N)nn1Cc1ncccn1 [II-1-23, 5-Methyl-1-(pyrimidin-2-ylmethyl)-1H-pyrazole-3-amine]",< -0.23
3,"Cn1nc(NC(=O)c2cncc(F)c2)cc1OC(F)F [Compound I-1-112, N-[5-(Difluoromethoxy)-1-methyl-1H-pyrazol-3-yl]-5-fluoronicotinamide]",1.56
4,"Cc1nn(-c2ccccn2)nc1N [5-Methyl-2-(pyridin-2-yl)-2H-1,2,3-triazol-4-amine]",0.74
5,"Cc1cn(Cc2ncccn2)nc1N1C(=O)c2ccccc2C1=O [2-[4-Methyl-1-(pyrimidin-2-ylmethyl)-1H-pyrazol-3-yl]-1H-isoindole-1,3(2H)-dione]",1.58
6,CCSCn1nc([N+](=O)[O-])cc1C [1-[(Ethylsulphanyl)methyl]-5-methyl-3-nitro-1H-pyrazole],2.21
7,Cc1cc(C(=O)O)nn1Cc1ncccn1 [5-Methyl-1-(pyrimidin-2-ylmethyl)-1H-pyrazole-3-carboxylic acid],0.45

# Same assay, conditions: reversed-phase HPLC column (C18), pH 2.7, Table 3; HPLC on reversed-phase column (C 18), 55° C., acidic range (pH 2.7 or pH 2.3); read-out: log P (acid)
row,Compound,chromatographic logP
1,"O=C(Nc1cnn(-c2ccc(C(F)(F)F)cn2)n1)c1cccnc1 [Compound I-3-14, N-{2-[5-(Trifluoromethyl)pyridin-2-yl]-2H-1,2,3-triazol-4-yl}nicotinamide]",1.91

# Same assay, conditions: reversed-phase HPLC column (C18), pH 2.7, values given in the synthesis examples and NMR lists; read-out: HPLC-MS: log P
row,Compound,chromatographic logP
1,"O=C(Nc1cnn(-c2ccc(C(F)(F)F)cn2)n1)c1cccnc1 [Compound I-3-14, N-{2-[5-(Trifluoromethyl)pyridin-2-yl]-2H-1,2,3-triazol-4-yl}nicotinamide]",1.91

# Tested on: Myzus persicae
# Assay: Myzus persicae - sachet test
# Type: in vivo
# Settings: Myzus persicae; application rate of 6 ppm in nutrient medium; 100% = all animals killed; read-out: efficacy (kill in %)
# Method: Myzus persicae—Sachet Test Solvent: 2% by vol. of N-methylpyrrolidone • 2% by vol. of diacetone alcohol To produce an appropriate active ingredient formulation, the active ingredient is mixed with the specified amounts of solvent and the concentrate is diluted to the desired concentration with water. The active ingredient formulation is added to a specific nutrient medium in the desired concentration by pipetting. This plate is sealed and combined with a further plate populated with the green peach aphid (Myzus persicae). After the desired time, the kill in % is determined. 100% means that all the animals have been killed; 0% means that no animals have been killed.
row,Compound,pest or weed control at 6 ppm
1,"O=C(Nc1cnn(-c2ccc(C(F)(F)F)cn2)n1)c1cccnc1 [Compound I-3-14, N-{2-[5-(Trifluoromethyl)pyridin-2-yl]-2H-1,2,3-triazol-4-yl}nicotinamide]",100%

# Same assay, conditions: Myzus persicae; application rate of 30 ppm in nutrient medium; 100% = all animals killed; read-out: efficacy (kill in %)
row,Compound,pest or weed control at 30 ppm
1,"O=C(Nc1cnn(-c2ccc(C(F)(F)F)cn2)n1)c1cccnc1 [Compound I-3-14, N-{2-[5-(Trifluoromethyl)pyridin-2-yl]-2H-1,2,3-triazol-4-yl}nicotinamide]",100%
2,"Cc1cc(NC(=O)c2ccnnc2)nn1Cc1ccccc1 [Compound I-1-79, N-(1-Benzyl-5-methyl-1H-pyrazol-3-yl)pyridazine-4-carboxamide]",100%

# Same assay, conditions: application rate of 6 ppm in nutrient medium; 100% = all animals killed
row,Compound,efficacy (kill in %)
1,O=C(Nc1ccn(Cc2ncc(C(F)(F)F)cc2Cl)n1)c1cccnc1 [Compound I-1-116],100%
2,O=C(Nc1cc(C2CC2)n(Cc2ccc(Cl)nc2)n1)c1cccnc1 [Compound I-1-29],100%
3,CCCCNC(=O)n1nc(NC(=O)c2cccnc2)cc1C [Compound I-1-315],100%
4,COc1cc(OC)nc(Cn2nc(NC(=O)c3cccnc3)cc2C)n1 [Compound I-1-53],100%
5,Cc1cc(NC(=O)c2cccnc2)nn1C(=O)NCc1ccccc1 [Compound I-1-322],100%
6,Cc1cc(NC(=O)c2cccnc2)nn1Cc1ccc(F)cc1 [Compound I-1-62],100%
7,Cc1cc(NC(=O)c2cccnc2)nn1Cc1nnc(-c2ccccc2)o1 [Compound I-1-299],100%
8,Cc1cc(NC(=O)c2cccnc2)nn1C(C)(C)C [Compound I-1-347],80%

# Same assay, conditions: application rate of 30 ppm in nutrient medium; 100% = all animals killed
row,Compound,efficacy (kill in %)
1,O=C(Nc1ccn(Cc2ncc(C(F)(F)F)cc2Cl)n1)c1cccnc1 [Compound I-1-116],100%
2,O=C(Nc1cc(C2CC2)n(Cc2ccc(Cl)nc2)n1)c1cccnc1 [Compound I-1-29],100%
3,Cc1cc(NC(=O)c2cccnc2)nn1CC1COc2ccccc2O1 (centres unmarked) [Compound I-1-157],100%
4,CCCCNC(=O)n1nc(NC(=O)c2cccnc2)cc1C [Compound I-1-315],100%
5,CCOC(=O)c1ccc(Cn2ccc(NC(=O)c3cccnc3)n2)cc1 [Compound I-1-92],100%
6,O=C(Nc1ccn(Cc2cccc(OC(F)(F)F)c2)n1)c1cccnc1 [Compound I-1-73],100%
7,CC(C)(C)c1ccc(Cn2ccc(NC(=O)c3ccc(Cl)nc3)n2)cc1 [Compound I-1-86],100%
8,COc1cc(OC)nc(Cn2nc(NC(=O)c3cccnc3)cc2C)n1 [Compound I-1-53],100%
9,CSc1nc(NC(=O)c2cccnc2)nn1C [Compound I-2-26],100%
10,O=C(Nc1ccn(Cc2cccc(F)c2)n1)c1cccnc1 [Compound I-1-70],100%
11,Cc1cc(NC(=Nc2ccc(Cl)cc2Cl)c2cccnc2)nn1C [Compound I-1-232],100%
12,Cc1cc(NC(=O)c2cncnc2)nn1Cc1ccccc1 [Compound I-1-66],100%
13,Cc1cc(NC(=O)c2cccnc2)nn1C(=O)NCc1ccccc1 [Compound I-1-322],100%
14,Cc1cc(NC(=O)c2cccnc2)nn1Cc1ccc(F)cc1 [Compound I-1-62],100%
15,Cc1cc(NC(=O)c2cccnc2)nn1Cc1nnc(-c2ccccc2)o1 [Compound I-1-299],100%
16,Cc1cc(C)nc(-n2nc(NC(=O)c3cncc(F)c3)cc2C)n1 [Compound I-1-132],100%
17,Cc1cc(NC(=O)c2cccnc2)nn1C(C)(C)C [Compound I-1-347],100%
